Details: in NMP

CC(C)Oc1ccc2c(=O)c(-c3ccccc3)coc2c1
Details	solubility (mole fraction)
278.15 K	0.0605
283.15 K	0.0683
288.15 K	0.078
293.15 K	0.0892
298.15 K	0.101
303.15 K	0.113
308.15 K	0.129
313.15 K	0.146
318.15 K	0.165
323.15 K	0.186

Source: BigSolDB 2.1
